Values joined by “and” are separate entries in the source; they are usually repeats but may differ in a detail not shown here. Equal values may be shown once.
Experiment: Dog PK study #3 (Compound A PO once daily 5 days, 5/10/20 mg/kg; PK, body weight, hematology)
Format: in vivo, beagle dogs
Set-up: Plasma Concentration: unit not given here
Method: For the third dog pharmacokinetic study, three solutions of different concentrations of Compound A were prepared in 5% DMSO/15% PEG-400/80% (10% VE-TPGS) as outlined in Table 2E. The Compound A solutions were administered to animals orally (PO) once daily over a five-day period. Body weight was recorded prior to dosing, and detailed clinical observations were made prior to dosing and throughout the study, as needed.
Animals were divided into Day 1 and Day 5 sample collection groups, with animals in the Day 1 collection group having blood samples taken prior to dosing and at 0.25, 0.5, 1, 2, 4, 8, and 24 hours after dosing on day 1. Animals in the Day 5 collection group having blood samples taken prior to dosing and at 0.25, 0.5, 1, 2, 4, 8, and 24 hours after dosing on day 5. Study groups are outlined in Table 3D.
Blood samples (~0.3 mL) were collected on day according to the following schedule (0.25, 0.5, 1, 2, 4, 8, and 24 h) after day 5 administration of Compound A by venipuncture of peripheral veins except for the dosing vein, and EDTA-K2 was used as anticoagulant. Within 30 minutes of collection, the samples were centrifuged at approximately 2000 times g-force for 10 minutes at 4° C. to obtain blood plasma. The plasma samples were immediately divided into two aliquots (~75 μL each), transferred to a cryogenic vial, and stored in a freezer at −75±15° C. prior to analysis.
The concentration of Compound A in the blood plasma was determined through LC-MS as previously described. Briefly, the experiments were conducted on a DMPK-LCMS-14-SMBA Triple Quad 6500 Plus instrument with an ACQUITY UPLC BEH C18 1.7 μm (50×2.1 mm) column. The matrix was male beagle dog plasma potassium (K2) EDTA A gradient of 95% water (0.1% formic acid and 2 mM HCOONH4)/95% acetonitrile (0.1% formic acid and 2 mM HCOONH4) was used as the mobile phase. The sample flow rate was 0.6 mL/min.
The samples were then vortex-mixed for 10 minutes at 800 rpm and centrifuged for 15 minutes at 3220×g at 4° C. 50 μL aliquots of supernatant were transferred to a clean 96-well plate and centrifuged for 5 minutes at 3220×g at 4° C. Samples were then injected into the LC/MS/MS system for quantitative analysis.
The gathered data were used for pharmacokinetic calculations using T1/2, CO, AUClast, AUCinf, MRTinf, Cl, Vss, and Number of Points for Regression as parameters.
The cell composition (hematology) of blood samples was analyzed at day 5. Analyses identified the total number of white blood cells, neutrophils, lymphocytes, monocytes, eosinophils, basophils, and platelets in collected samples.

[1] = Day 1, 20 mg/kg dose PO, individual animals
[2] = Day 1, Group 1, individual animals
[3] = Day 1, Group 2, individual animals
[4] = Day 1, Group 3, individual animals
[5] = Day 2, Group 1, individual animals
[6] = Day 2, Group 2, individual animals
[7] = Day 2, Group 3, individual animals
[8] = Day 3, Group 1, individual animals
[9] = Day 3, Group 2, individual animals
[10] = Day 3, Group 3, individual animals
[11] = Day 4, Group 1, individual animals
[12] = Day 4, Group 2, individual animals
[13] = Day 4, Group 3, individual animals
[14] = Day 5, 5 mg/kg dose PO, individual animals

Compound `Cn1cc(-c2ccccc2)c(-c2cn(C)c(=O)c3[nH]c(-c4cnn(C(F)(F)F)c4)cc23)cc1=O` [Compound A, 6-methyl-4-(1-methyl-2-oxo-5-phenyl-1,2-dihydropyridin-4-yl)-2-(1-(trifluoromethyl)-1H-pyrazol-4-yl)-1,6-dihydro-7H-pyrrolo[2,3-c]pyridin-7-one] has a Cmax [1] of 6 µg/mL, an MRT0-inf [1] of 18.1 h and an MRT0-last [1] of 10.1 h. The Tlast [1] was 24.0 h, the T½ [1] was 5.64 h and 11.7 h and the Vz_F [1] was 3.09 L/kg and 2.89 L/kg. For the same compound, the AUC0-last (Day 1, 20 mg/kg dose PO, mean) was 67.852 µg·h/mL, the AUCExtra (Day 1, 20 mg/kg dose PO, mean) was 16.1% and the AUMCExtra (Day 1, 20 mg/kg dose PO, mean) was 39.6%. The Cl_F (Day 1, 20 mg/kg dose PO, mean) was 0.275 L/h/kg, the Tlast (Day 1, 20 mg/kg dose PO, mean) was 24.0 h and the Vz_F (Day 1, 20 mg/kg dose PO, mean) was 2.99 L/kg. The “Animal body weight” value [2] was 8.38 kg and 8.88 kg, the “Clinical Observation” value [2] was “None” and the “Animal Body Weight, Mean” value (Day 1, Group 1, mean) was 8.63 kg. The “Animal body weight” value [3] was 8.36 kg and 9.37 kg, the “Clinical Observation” value [3] was “None” and the “Animal Body Weight, Mean” value (Day 1, Group 2, mean) was 8.87 kg. The “Animal body weight” value [4] was 9.24 kg and 8.79 kg, the “Clinical Observation” value [4] was “None” and the “Animal Body Weight, Mean” value (Day 1, Group 3, mean) was 9.02 kg. For the same compound, the “Animal body weight” value [5] was 8.44 kg and 9.33 kg, the “Clinical Observation” value [5] was “None” and the “Animal Body Weight, Mean” value (Day 2, Group 1, mean) was 8.89 kg. For the same compound, the “Animal body weight” value [6] was 9.63 kg and 8.65 kg, the “Clinical Observation” value [6] was “None” and the “Animal Body Weight, Mean” value (Day 2, Group 2, mean) was 9.14 kg. The “Animal body weight” value [7] was 9.44 kg and 9.25 kg, the “Clinical Observation” value [7] was “None” and the “Animal Body Weight, Mean” value (Day 2, Group 3, mean) was 9.35 kg. The “Animal body weight” value [8] was 8.45 kg and 9.29 kg, the “Clinical Observation” value [8] was “None” and the “Animal Body Weight, Mean” value (Day 3, Group 1, mean) was 8.87 kg. The “Animal body weight” value [9] was 9.5 kg and 8.69 kg, the “Clinical Observation” value [9] was “None” and the “Animal Body Weight, Mean” value (Day 3, Group 2, mean) was 9.10 kg. The “Animal body weight” value [10] was 9.32 kg and 8.96 kg, the “Clinical Observation” value [10] was “None” and the “Animal Body Weight, Mean” value (Day 3, Group 3, mean) was 9.14 kg. The “Animal body weight” value [11] was 8.45 kg and 9.29 kg, the “Clinical Observation” value [11] was “None” and the “Animal Body Weight, Mean” value (Day 4, Group 1, mean) was 8.87 kg. For the same compound, the “Animal body weight” value [12] was 9.43 kg and 8.6 kg, the “Clinical Observation” value [12] was “None” and the “Animal Body Weight, Mean” value (Day 4, Group 2, mean) was 9.02 kg. For the same compound, the “Animal body weight” value [13] was 9.13 kg and 8.6 kg, the “Clinical Observation” value [13] was “None” and the “Animal Body Weight, Mean” value (Day 4, Group 3, mean) was 8.87 kg. The “Plasma Concentration” value (Day 5, 5 mg/kg dose PO, time 1, individual animals) was 1120 and 910, the “Plasma Concentration” value (Day 5, 5 mg/kg dose PO, time 1, mean) was 1015 and the “Plasma Concentration” value (Day 5, 5 mg/kg dose PO, time 2, individual animals) was 1270 and 1040. The “Plasma Concentration” value (Day 5, 5 mg/kg dose PO, time 2, mean) was 1155, the “Plasma Concentration” value (Day 5, 5 mg/kg dose PO, time 4, individual animals) was 1180 and 878 and the “Plasma Concentration” value (Day 5, 5 mg/kg dose PO, time 4, mean) was 1029. For the same compound, the “Plasma Concentration” value (Day 5, 5 mg/kg dose PO, time 8, individual animals) was 823 and 650, the “Plasma Concentration” value (Day 5, 5 mg/kg dose PO, time 8, mean) was 737 and the “Plasma Concentration” value (Day 5, 5 mg/kg dose PO, time 24, individual animals) was 400. For the same compound, the AUC0-last [14] was 11.297 µg·h/mL, the AUC(0-inf) [14] was 25.554 µg·h/mL and 12.279 µg·h/mL and the AUCExtra [14] was 30.4% and 8.00%. The AUMCExtra [14] was 65.9% and 26.4%, the Cl_F [14] was 0.196 L/h/kg and 0.407 L/h/kg and the Cmax [14] was 1.04 µg/mL. For the same compound, the MRT0-last [14] was 8.08 h, the Tlast [14] was 24.0 h and the T½ [14] was 13.5 h and 6.42 h. For the same compound, the Vz_F [14] was 3.82 L/kg and 3.77 L/kg, the AUC0-last (Day 5, 5 mg/kg dose PO, mean) was 14.544 µg·h/mL and the AUCExtra (Day 5, 5 mg/kg dose PO, mean) was 19.2%. It also gave an AUMCExtra (Day 5, 5 mg/kg dose PO, mean) of 46.2%, a Cl_F (Day 5, 5 mg/kg dose PO, mean) of 0.301 L/h/kg and a Tlast (Day 5, 5 mg/kg dose PO, mean) of 24.0 h. The Vz_F (Day 5, 5 mg/kg dose PO, mean) was 3.79 L/kg, the Basophils (Day 5, 5 mg/kg/day (mean), range 0.00-0.19) was 0.08 10^3/μL and the Eosinophils (Day 5, 5 mg/kg/day (mean), range 0.00-1.24) was 0.38 10^3/μL. The Monocytes (Day 5, 5 mg/kg/day (mean), range 0.11-1.08) was 0.31 10^3/μL and the Lymphocytes (Day 5, 5 mg/kg/day (mean), range 1.42-3.76) was 2.72 10^3/μL.
